Assay results reported in ChEMBL document CHEMBL1143916, “Inhibition of 3(17)alpha-hydroxysteroid dehydrogenase (AKR1C21) by aldose reductase inhibitors” (Bioorg Med Chem, 2008).

How the values were obtained:
[1] = molecular target: T1, Aldo-keto reductase family 1 member C21 (Mus musculus, UniProt Q91WR5); assay: Inhibition of mouse recombinant AKR1C21
T1 sequence (Q91WR5 whole entry): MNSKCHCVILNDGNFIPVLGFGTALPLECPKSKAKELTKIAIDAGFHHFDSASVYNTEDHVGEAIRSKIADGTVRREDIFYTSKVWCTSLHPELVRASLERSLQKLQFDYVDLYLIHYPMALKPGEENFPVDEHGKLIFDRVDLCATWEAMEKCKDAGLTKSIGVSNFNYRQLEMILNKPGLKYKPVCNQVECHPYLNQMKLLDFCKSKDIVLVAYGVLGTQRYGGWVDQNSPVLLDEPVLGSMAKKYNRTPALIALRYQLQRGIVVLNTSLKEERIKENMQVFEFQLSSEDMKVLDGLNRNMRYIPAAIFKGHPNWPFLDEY

[2] = molecular target: Aldo-keto reductase family 1 member B1 (Homo sapiens, UniProt P15121); assay: Inhibition of human recombinant aldose reductase
[3] = molecular target: T2, Aldo-keto reductase family 1 member C21 (Mus musculus) (UniProt Q91WR5); assay: Inhibition of mouse recombinant AKR1C21 at 12 uM
T2 sequence (whole entry): T1 sequence (Q91WR5 whole entry)

SMILES	Ki [1]	inhibition [3]	IC50 [1]	IC50 [2]
O=c1c(O)c(-c2ccc(O)c(O)c2)oc2cc(O)cc(O)c12 [QUERCETIN]	11 µM	–	6.9 µM	–
O=c1c(O)c(-c2cc(O)c(O)c(O)c2)oc2cc(O)cc(O)c12 [MYRICETIN]	–	–	12.3 µM	29 µM
C[C@@H]1O[C@@H](Oc2c(-c3ccc(O)c(O)c3)oc3cc(O)cc(O)c3c2=O)[C@H](O)[C@H](O)[C@H]1O [QUERCITRIN]	–	–	33.3 µM	–
O=C(O)Cc1nn(Cc2nc3cc(C(F)(F)F)ccc3s2)c(=O)c2ccccc12 [ZOPOLRESTAT]	–	–	158 µM	–

Continued, in another order:

Ki [1]	inhibition [3]	SMILES	IC50 [1]	IC50 [2]
22 µM	–	COc1ccc2c(C(=S)N(C)CC(=O)O)cccc2c1C(F)(F)F [TOLRESTAT]	48 µM	–
10.4 µM	–	O=C1CC2(C(=O)N1)C(=O)N(Cc1ccc(Br)cc1F)C(=O)c1ccc(F)cc12 (configuration not stated)	27.5 µM	–
–	36%	O=c1cc(-c2ccccc2)oc2cc(O)cc(O)c12 [CHRYSIN]	–	8.5 µM
